Results taken from publication PMC9606187, “Dual HDAC/BRD4 Inhibitors Relieves Neuropathic Pain by Attenuating Inflammatory Response in Microglia After Spared Nerve Injury” (Neurotherapeutics, 2022).

Experiments:
[1] = test system: model of neuropathic pain; parameters: method as in PMID 33529752; conditions: cited from earlier work
[2] = target: T1, Recombinant Human Bromodomain containing protein 4, bromodomain 1 (BRD4-BD1) (Homo sapiens, UniProt O60885); assay: AlphaScreen bromodomain binding assay (Reaction Biology), BRD4-1; conditions: ligand Histone H4 peptide (1–21) K5/8/12/16Ac-Biotin; in comparison with (+)-JQ1; read-out: IC50 on BRD4-BD1
T1 construct: bromodomain 1 (aa 44–170); purchased Reaction Biology (RBC) RD-11–140; host or cells: E. coli
Method: (§1) The reader assay is a binding assay using AlphaScreen technology […] assay and was performed by Reaction Biology (www.reactionbiology.com). The biotinylated peptide binding to the reader domain of His-tagged protein is monitored by the singlet oxygen transfer from the Streptavidin-coated donor beads to the AlphaScreen Ni-chelate acceptor beads.
(§2) Reaction buffer: 50 mM Hepes, pH7.5, 100 mM NaCl, 0.05% CHAPS, 0.1% BSA, and 1% DMSO (the final DMSO concentration may differ depending on compound stock and test concentrations).
(§3) Bromodomain: BRD4-1: RBC Cat# RD-11–140: Recombinant Human Bromodomain containing protein 4, bromodomain 1 (aa 44–170; Genbank Accession # NM_058243), expressed in E. coli with N-terminal His-tag. MW = 17.8 kDa; BRD4-2: RBC Cat# RD-11–141: Recombinant Human Bromodomain containing protein 4, bromodomain 2 (aa 349–460;Genbank Accession # NM_058243), expressed in E. coli with N-terminal His-tag. MW = 15.7 kDa. Ligand (C-term-Biotin): Histone H4 peptide (1–21) K5/8/12/16Ac-Biotin. Detection beads: PerkinElmer: Donor beads: Streptavidin-coated donor beads; Acceptor beads: AlphaScreen Ni acceptor beads.
Reaction procedure: • Deliver 2.5X BRD in wells of reaction plate except No BRD control wells. Add buffer instead. • Deliver compounds in 100% DMSO into the BRD mixture by Acoustic technology (Echo550; nanoliter range). […]

[3] = target: T2, Recombinant Human Bromodomain containing protein 4, bromodomain 2 (BRD4-BD2) (Homo sapiens, UniProt O60885); assay: AlphaScreen bromodomain binding assay (Reaction Biology), BRD4-2
T2 construct: purchased Reaction Biology (RBC) RD-11–141; host or cells: E. coli
Method: as §1, §2, §3
Reaction procedure: • Deliver 2.5X BRD in wells of reaction plate except No BRD control wells. Add buffer instead. • Deliver compounds in 100% DMSO into the BRD mixture by Acoustic technology (Echo550; nanoliter range). Spin down and pre-incubation for 30 min. • Deliver 5X Ligand. Spin and shake. • Incubate for 30 min at room temperature with gentle shaking. • Deliver 5X donor beads. Spin and shake. • Deliver 5X acceptor beads. Spin and shake. Then gentle shaking in the dark for 60 min. • Alpha measurement (Ex/Em = 680/520–620 nm) in Enspire.

HDAC1 = target: T3, HDAC1 (Homo sapiens, UniProt Q13547); assay: HDAC1 immunoprecipitation & activity assay on treated HCT-116 cells; format: cell-based; conditions: HCT-116 cells treated at 10 µM for 12 h; in comparison with SAHA
T3 construct: endogenous in cells; host or cells: HCT-116
Method: HDAC assay: To test the inhibition activity of compounds, the HDAC1 immunoprecipitation (IP) & Activity Assay Kit (Catalog # K342-25; Biovision) was used under the protocol provided by the kit. HCT-116 cell lines were plated in 6 wells and treated with the investigated compounds at 10 µM for 12 h. After incubation, the media was removed, and the cells were washed with PBS (EuroClone) solution (2X). Then, 200 µl/well of lysis buffer with protease inhibitor was added and the cells were scraped and incubated in ice for 30 min. After centrifugation at 10,000 g for 10 min at 4 °C, the supernatant was collected. One hundred micrograms of each extract was incubated with 6 µl of Rabbit HDAC1 antibody and Rabbit IgG and the volume was reached to 500 µl with PBS with protease inhibitors. After incubation at 4 °C overnight a rotary mixer, 25 µl of the protein-A/G bead slurry, previously washed with PBS (2X), was added to the samples and incubated for 1 h at 4 °C. The beads were recovered after 3 washes with 1 ml PBS, by centrifuging at 14,000 g for ~ 10 s and used for HDAC assay.
HDAC assay preparation: For each reaction, 168 µl reaction mix containing HDAC assay buffer and HDAC substrate was prepared, added to the sample and to background control tube, and incubated at 37 °C for 2 h. SAHA was used as a positive control. […] The fluorescence was read at Ex/Em = 380/500 nm with Tecan M1000 plate reader.

naïve mice = assay: Hot plate test, acute thermal pain in naïve mice; format: in vivo; conditions: 5 to 500 µM i.n.
Excerpt: Mice were randomly assigned to each treatment group. To evaluate the pharmacological profile of SUM35 (N-hydroxy-6-(1-methyl-6-phenyl-4H-benzo[f][1,2,4]triazolo[4,3-a][1,4]diazepin-8-yl)hex-5-ynamide), SUM52 ((S)-N-hydroxy-7-(2-(1-methyl-6-phenyl-4H-benzo[f][1,2,4]triazolo[4,3-a][1,4]diazepin-4-yl)acetamido)heptanamide) (Fig. 1F), synthesized in the laboratory of Prof. Maria Novella Romanelli, iBET762 (molibresib; (4S)-6-(4-Chlorophenyl)-N-ethyl-8-methoxy-1-methyl-4H-[1,2,4]triazolo[4,3,a][1,4] benzodiazepine-4-acetamide, and SAHA (vorinostat; suberoylanilide hydroxamic acid) (Sigma-Aldrich, Italy) were administered 15 min before the tests. Drugs were dissolved in 5% DMSO. Drug concentrations were prepared in such a way that the necessary dose could be administered in a volume of 10 µl per mouse by intranasal (i.n.) administration. The experimental protocol to test the effect of treatments on behavioral and in vitro tests included 3 control groups: untreated, vehicle (5% DMSO), and saline. A representative figure of the experimental protocol in naïve (C) and SNI (F) mice has been inserted in Supplementary Fig. 1.
For i.n. administration, mice were slightly anesthetized by 2% isoflurane inhalation and placed in a supine position. A 5 μl aliquot of solution (treatments or vehicle) was slowly dropped alternatively to each nostril with a micropipette tip.
Animals were habituated to the testing environment daily for at least 2 days before baseline testing. To evaluate onset and progression of pain hypersensitivity, neuropathic mice were monitored by measuring nociceptive responses every 30 min for 3 h before surgery or 3, 7, 10, and 14 days after nerve surgery. Experiments were performed on post-surgery day 7 and 14 when the pain hypersensitivity was well established. Each mouse served as its own control, the responses being measured both before and after surgery. All testing was performed with a blind procedure.

SNI mice [4] = assay: Hargreaves' plantar test, thermal allodynia in SNI mice; format: in vivo
Method: (§4) For i.n. administration, mice were slightly anesthetized by 2% isoflurane inhalation and placed in a supine position [30]. A 5 μl aliquot of solution (treatments or vehicle) was slowly dropped alternatively to each nostril with a micropipette tip.
Behavioral testing was performed before surgery to establish a baseline for comparison with post-surgical values.
Thermal nociceptive threshold was measured using Hargreaves’ device, as described [33]. Nociceptive response for thermal sensitivity was expressed as thermal paw withdrawal latency in seconds. All determinations were averaged for each animal.

SNI mice [5] = assay: Mechanical allodynia (Dynamic Plantar Aesthesiometer) in SNI mice; format: in vivo
Method: Mice were randomly assigned to each treatment group. […] Maria Novella Romanelli, iBET762 (molibresib; (4S)-6-(4-Chlorophenyl)-N-ethyl-8-methoxy-1-methyl-4H-[1,2,4]triazolo[4,3,a][1,4] benzodiazepine-4-acetamide, and SAHA (vorinostat; suberoylanilide hydroxamic acid) (Sigma-Aldrich, Italy) were administered 15 min before the tests. Drugs were dissolved in 5% DMSO. Drug concentrations were prepared in such a way that the necessary dose could be administered in a volume of 10 µl per mouse by intranasal (i.n.) administration. The experimental protocol to test the effect of treatments on behavioral and in vitro tests included 3 control groups: untreated, vehicle (5% DMSO), and saline.
as §4
Behavioral testing was performed before surgery to establish a baseline for comparison with post-surgical values. Mono-neuropathy was induced by spared nerve injury and this model of pain in mice has been in use for several years [31]. The SNI procedure was performed as previously described [31].
Mechanical allodynia was measured by using Dynamic Plantar Aesthesiometer (Ugo Basile, Bologna, Italy), as described [32]. Nociceptive response for mechanical sensitivity was expressed as mechanical paw withdrawal threshold (PWT) in grams. PWT was quantified by an observer blinded to the treatment.

[6] = time-course comparison, combination i-BET762 10 µg, SAHA 3 µg

T3 sequence (Q13547 whole entry): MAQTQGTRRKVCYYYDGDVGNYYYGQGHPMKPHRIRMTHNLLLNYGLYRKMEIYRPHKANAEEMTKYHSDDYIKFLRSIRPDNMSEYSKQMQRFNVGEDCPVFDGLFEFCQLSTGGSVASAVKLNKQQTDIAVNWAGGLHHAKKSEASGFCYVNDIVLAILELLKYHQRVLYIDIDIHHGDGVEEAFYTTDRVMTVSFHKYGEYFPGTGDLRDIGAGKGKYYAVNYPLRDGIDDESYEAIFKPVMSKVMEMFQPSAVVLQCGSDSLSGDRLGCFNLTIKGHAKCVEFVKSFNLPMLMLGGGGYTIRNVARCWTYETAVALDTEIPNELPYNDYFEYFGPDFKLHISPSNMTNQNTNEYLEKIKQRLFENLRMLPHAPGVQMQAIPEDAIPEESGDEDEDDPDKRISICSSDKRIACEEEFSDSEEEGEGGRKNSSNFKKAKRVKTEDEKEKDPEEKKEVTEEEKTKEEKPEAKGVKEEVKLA

Row | Structure (SMILES) | time of peak of analgesic activity after administration [1] [min] | IC50 [2] [nM] | preference between BRD4-BD1 and BRD4-BD2 domains ([3]; BRD4-BD1 vs BRD4-BD2) | IC50 ([3]; ligand Histone H4 peptide (1–21) K5/8/12/16Ac-Biotin, in comparison with (+)-JQ1, read-out: IC50 on BRD4-BD2) [nM] | inhibition of HDAC1 enzymatic activity (HDAC1) | thermal antinociceptive effect (hot plate), whole dose range (naïve mice) | thermal antiallodynic activity, ipsilateral side (SNI mice [4]; 100 µM i.n.) | thermal antiallodynic activity, ipsilateral side (SNI mice [4]; 200 µM i.n.) | thermal antiallodynic efficacy compared with SAHA + iBET762 combination (SNI mice [4]; [6]) | mechanical antiallodynic activity, ipsilateral side (SNI mice [5]; 100 µM i.n.) | mechanical antiallodynic activity, ipsilateral side (SNI mice [5]; 200 µM i.n.) | mechanical antiallodynic efficacy compared with SAHA + iBET762 combination (SNI mice [5]; [6])
1 | O=C(CCCCCCC(=O)Nc1ccccc1)NO [SAHA, suberoylanilide hydroxamic acid] | 60 |  |  |  |  |  |  |  |  |  |  | 
2 | Cc1nnc2n1-c1ccc(C#CCCCC(=O)NO)cc1C(c1ccccc1)=NC2 [SUM35, N-hydroxy-6-(1-methyl-6-phenyl-4H-benzo[f][1,2,4]triazolo[4,3-a][1,4]diazepin-8-yl)hex-5-ynamide] |  | 1720 | preferential interaction for BRD4-BD2 | 118 | Partial inhibition | did not produce any significant increase of the thermal pain threshold | reaching the statistical significance | did not produce any significant increase of pain threshold | lower antiallodynic activity | reaching the statistical significance | did not produce any significant increase of pain threshold | lower antiallodynic activity
3 | CCNC(=O)C[C@@H]1N=C(c2ccc(Cl)cc2)c2cc(OC)ccc2-n2c(C)nnc21 [iBET762, (4S)-6-(4-Chlorophenyl)-N-ethyl-8-methoxy-1-methyl-4H-[1,2,4]triazolo[4,3,a][1,4] benzodiazepine-4-acetamide] | 90 |  |  |  |  |  |  |  |  |  |  | 
